How the values were obtained:
[1] = Inhibition of RANKL/M-CSF-induced osteoclastogenesis in male C57/BL6 mouse bone marrow cells at 0.1 uM incubated for 5 to 7 days by TRAP staining based analysis relative to control; assay type: functional; details: C57/BL6, Bone marrow cell, time 5-7 day
[2] = Inhibition of RANKL/M-CSF-induced osteoclastogenesis in male C57/BL6 mouse bone marrow cells at 1 uM incubated for 5 to 7 days by TRAP staining based analysis relative to control; assay type: functional; details: C57/BL6, Bone marrow cell, time 5-7 day
[3] = Cytotoxicity against bone marrow macrophage cells (unknown origin) assessed as cell viability at 10 uM incubated for 24 hrs by CCK8 assay relative to control; assay type: toxicity, cell-based; details: read-out: Activity
[4] = Anti-osteoclastogenic activity in bone marrow cells (unknown origin) assessed as inhibition of RANKL/M-CSF-induced osteoclast differentiation measured after 5 days by TRAP staining based analysis; assay type: functional; details: Bone marrow cell, 120 h

Compound | inhibition at 0.1 µM [1] | inhibition at 1 µM [2] | viability at 24 h, 10 µM [3] | IC50 [4]
Cc1cccc(C)c1NC(=O)[C@@H]1Cc2c([nH]c3ccccc23)[C@](C)(CCc2ccccc2)N1 | 37.3% | 48.3% | 117% | 
Cc1ccccc1NC(=O)[C@@H]1Cc2c3ccccc3[nH]c2[C@]2(C[C@@H](c3ccccc3)C2)N1 | 23% | 54.4% | 102% | 
CC(C)c1cccc(C(C)C)c1NC(=O)[C@@H]1Cc2c3ccccc3[nH]c2[C@]2(C[C@@H](c3ccccc3)C2)N1 | 23.6% | 66.9% | 115% | 
Cc1cccnc1NC(=O)[C@@H]1Cc2c3ccccc3[nH]c2[C@]2(C[C@H](c3ccccc3)C2)N1 | 16.7% | 49.8% | 159% | 
Cc1cccnc1NC(=O)[C@@H]1Cc2c3ccccc3[nH]c2[C@]2(C[C@@H](c3ccccc3)C2)N1 | 35.9% | 58.3% | 160% | 
O=C(Nc1ccccn1)[C@@H]1Cc2c3ccccc3[nH]c2[C@]2(C[C@H](c3ccccc3)C2)N1 | 13.1% | 44.2% | 149% | 
Cc1cccc(C)c1NC(=O)[C@H]1Cc2c([nH]c3ccccc23)C2(CN(c3ccccc3)C2)N1 | 42.9% | 78.3% | 119% | 
Cc1cccc(C)c1NC(=O)[C@H]1Cc2c3ccccc3[nH]c2[C@]2(C[C@H](c3ccccc3)C2)N1 | 12.3% | 45.7% | 105% | 
Cc1cccc(C)c1NC(=O)[C@@H]1Cc2c3ccccc3[nH]c2[C@]2(C[C@@H](c3ccccc3)C2)N1 | 36.2% | 55.1% | 105% | 
Cc1cccc(C)c1NC(=O)[C@H]1Cc2c3ccccc3[nH]c2[C@]2(C[C@@H](c3ccccc3)C2)N1 |  | 23.8% | 116% | 
Cc1cccc(C)c1NC(=O)[C@@H]1Cc2c([nH]c3ccccc23)C2(CN(c3ccc(S(C)(=O)=O)cc3)C2)N1 | 23.4% | 52.1% | 106% | 
CC(C)c1cccc(C(C)C)c1NC(=O)[C@@H]1Cc2c3ccccc3[nH]c2[C@]2(C[C@H](c3ccccc3)C2)N1 | 20.7% | 62% | 141% | 
Cc1cccc(C)c1NC(=O)[C@@H]1Cc2c3ccccc3[nH]c2[C@]2(C[C@H](c3ccccc3)C2)N1 | 29.2% | 32.3% | 95.1% | 
Cc1cccc(C)c1NC(=O)[C@@H]1Cc2c([nH]c3ccccc23)C2(CN(c3cccnc3)C2)N1 | 11.5% | 52.5% | 107% | 
Cc1cccc(C)c1NC(=O)[C@@H]1Cc2c([nH]c3ccccc23)C2(CN(c3ccc(C(F)(F)F)cc3)C2)N1 | 15.4% | 43.7% | 117% | 
CC(C)c1ccccc1NC(=O)[C@@H]1Cc2c3ccccc3[nH]c2[C@]2(C[C@H](c3ccccc3)C2)N1 | 12.7% | 37.5% | 103% | 

Compound | inhibition at 0.1 µM [1] | inhibition at 1 µM [2] | viability at 24 h, 10 µM [3] | IC50 [4]
CCc1ccc(N2CC3(C2)N[C@H](C(=O)Nc2c(C)cccc2C)Cc2c3[nH]c3ccccc23)cc1 | 25.1% | 35.9% | 101% | 
COc1cccc(OC)c1NC(=O)[C@@H]1Cc2c3ccccc3[nH]c2[C@]2(C[C@@H](c3ccccc3)C2)N1 | 16.5% | 32.3% | 70.2% | 
Cc1cc2occ(CN(C)CCN(C)Cc3cn(-c4cccc(C(F)(F)F)c4)c4ccccc34)c(=O)c2cc1C | 18.4% | 56.1% | 3.8% | 1000 nM
O=C(Nc1ccccn1)[C@@H]1Cc2c3ccccc3[nH]c2[C@]2(C[C@@H](c3ccccc3)C2)N1 | 16.1% | 41.2% | 127% | 
Cc1cccc(C)c1NC(=O)[C@@H]1Cc2c([nH]c3ccccc23)C2(CN(c3ccc(C#N)cc3)C2)N1 | 37.3% | 48.3% | 105% | 
Cc1cccc(C)c1NC(=O)[C@@H]1Cc2c([nH]c3ccccc23)[C@@](C)(CCc2ccccc2)N1 | 23.4% | 52.1% | 106% | 
Cc1cccc(C)c1NC(=O)[C@@H]1Cc2c([nH]c3ccccc23)C2(CCN(c3ccccc3)CC2)N1 |  | 30.2% | 120% | 
CN(C)c1ccccc1NC(=O)[C@@H]1Cc2c3ccccc3[nH]c2[C@]2(C[C@@H](c3ccccc3)C2)N1 | 32.2% | 89.9% | 109% | 
CC(C)c1ccccc1NC(=O)[C@@H]1Cc2c3ccccc3[nH]c2[C@]2(C[C@@H](c3ccccc3)C2)N1 | 26.5% | 62.5% | 116% | 
CN(C)c1ccccc1NC(=O)[C@@H]1Cc2c3ccccc3[nH]c2[C@]2(C[C@H](c3ccccc3)C2)N1 | 10.2% | 58.4% | 66.3% | 
O=C(Nc1ccccc1F)[C@@H]1Cc2c3ccccc3[nH]c2[C@]2(C[C@@H](c3ccccc3)C2)N1 | 34.4% | 70.1% | 101% | 
COc1ccc(N2CC3(C2)N[C@H](C(=O)Nc2c(C)cccc2C)Cc2c3[nH]c3ccccc23)cc1 | 34.6% | 48.6% | 102% | 
Cc1ccccc1NC(=O)[C@@H]1Cc2c3ccccc3[nH]c2[C@]2(C[C@H](c3ccccc3)C2)N1 | 16.5% | 66.5% | 112% | 
COc1cccc(OC)c1NC(=O)[C@@H]1Cc2c3ccccc3[nH]c2[C@]2(C[C@H](c3ccccc3)C2)N1 | 11.5% | 35.9% | 95.7% | 
O=C(Nc1ccccc1F)[C@@H]1Cc2c3ccccc3[nH]c2[C@]2(C[C@H](c3ccccc3)C2)N1 | 17.6% | 40.7% | 63.6% | 
Cc1cccc(C)c1NC(=O)[C@@H]1Cc2c([nH]c3ccccc23)C2(CN(c3ccc(F)cc3)C2)N1 | 23.1% | 57.4% | 119% | 

— ChEMBL document CHEMBL6178002, “Identification of a RANKL/TNF-α Dual-Inhibitor as a Potential Disease-Modifying Agent for the Treatment of Knee Osteoarthritis” (J Med Chem, 2025)
